Like-named read-outs stand apart in the source and are kept apart here.
Legend:
[1] = tested on: neutrophils; assay: Hypochlorous acid production by neutrophils; assay type: cell-based; settings: Homo sapiens, Neutrophil, mean ± S.E.M.; for activity at 10000 µM: 10 mM HEPES; for activity at 40000 µM: 40 mM taurine
Excerpt: (§1) Patients were selected with mild to moderate plaque-type psoriasis on the basis of clinical and histological evidence of disease. Normal volunteers were selected from laboratory personnel without personal or family history of inflammatory disease. Disease control groups included: a) patients with eczema, acne and dermatitis herpetiformis; and b) patients with Crohn's disease and ulcerative colitis.
(§2) Blood samples from each subject were drawn into sodium heparin Vacutainers® (Vacutainer is a Trade Mark). The inflammatory cells (neutrophils) were isolated by dextran sedimentation and FICOLL-PAQUE®(FICOLL-PLAQUE is a Trade Mark) gradient centrifugation. Viability and purity were assessed by fluorescence microscopy, using ethidium bromide and acridine orange staining.

[2] = tested on: myeloperoxidase; assay: Myeloperoxidase activity of neutrophils after preincubation with zwitterion; assay type: cell-based, human; settings: mean ± S.E.M.
Excerpt: as §1, §2

[3] = tested on: monocytes; assay: Leukotriene B4 in stimulated monocytes; assay type: cell-based, human; settings: preincubation with 10 mM HEPES or 40 mM taurine; data not shown
Excerpt: (§3) It was therefore proposed to test the hypothesis that HEPES could inactivate leukotriene B4 by indirect stimulation of MPO leading to increased production of hypochlorous acid from cellular hydrogen peroxide.

[4] = tested on: neutrophils; assay: Leukotriene B4 in supernatants of stimulated neutrophils; assay type: cell-based, human; settings: mean ± S.E.M.; for activity at 10000 µM / activity at 40000 µM: Homo sapiens, Neutrophil, read-out: Leukotriene B4 production by neutrophils; for activity at 40000 µM: 40 mM taurine
Excerpt: as §1, §2, §3
For the methodology used in the in vitro studies hereinafter described reference should be made to McLoughlin, D. M. et al. Biochem. Soc. Trans. (1991) 19:73-78 hereby incorporated by reference, except where otherwise stated.

[5] = tested on: peripheral blood neutrophils; assay: Chemiluminescence (reactive oxidant production) of peripheral blood neutrophils stimulated with calcium ionophore; assay type: cell-based; settings: Homo sapiens, Neutrophil, mean ± S.E.M., read-out: Chemiluminesence production by neutrophils; for activity at 10000 µM: 10 mM HEPES; for activity at 40000 µM: 40 mM taurine
Excerpt: Patients were selected with mild to moderate plaque-type psoriasis on the basis of clinical and histological evidence of disease. Normal volunteers were selected from laboratory personnel without personal or family history of inflammatory disease. Disease control groups included: a) patients with eczema, acne and dermatitis herpetiformis; and b) patients with Crohn's disease and ulcerative colitis. Blood samples from each subject were drawn into sodium heparin Vacutainers® (Vacutainer is a Trade Mark). The inflammatory cells (neutrophils) were isolated by dextran sedimentation and FICOLL-PAQUE®(FICOLL-PLAQUE is a Trade Mark) gradient centrifugation. Viability and purity were assessed by fluorescence microscopy, using ethidium bromide and acridine orange staining. […] Chemiluminescence activity of the peripheral blood neutrophils was tested using the method of Bloomfield, F. J. and Young, M. M. (Inflammation, (1982) 6, 257, hereby incorporated by reference), using calcium ionophore (2μ Molar) as stimulant instead of opsonized zymosan. Chemiluminescence is a measure of the production of reactive oxidants by neutrophils in response to an inflammatory stimulus. It was observed that there was significant reduction in chemiluminescence activity by neutrophils in the taurine-treated and HEPES-treated cells compared to control cells in all groups.

[6] = Skin penetration and percutaneous absorption of 14C-HEPES after a single topical dose; assay type: in vivo, human; settings: for Mean urinary excretion of radioactivity: mean (S.D.), up to 120 hours
Method: The skin penetration and percutaneous absorption of radioactivity following topical administration of a single does of ^14 C-HEPES (approximately 100 mg 5% cream containing 70 uCi ^14 C) was investigated in two groups of six healthy male volunteers. The dose was applied to intact skin in one group and to skin stripped 10 times with scotch tape in the second group. The unabsorbed material was removed after 12 hours and the area of application was stripped 10 times in order to determine skin penetration. Blood, urine and faeces samples were collected up to 120 hours after dose application for assessment of total radioactivity.

[7] = tested on: myeloperoxidase; assay: Binding of zwitterion to myeloperoxidase (preliminary studies)
[8] = tested on: catalase; assay: Catalase activity of neutrophils after preincubation; assay type: cell-based, human; settings: neutrophils preincubated with HEPES or taurine; data not shown
[9] = tested on: neutrophils; assay: Degranulation of lysosomal enzymes by neutrophils stimulated with calcium ionophore; assay type: cell-based, human; settings: for activity at 10000 µM: Homo sapiens, Neutrophil, 10 mM HEPES, mean; for degranulation by preincubated neutrophils compared to control cells: result in words, taurine data not shown
Excerpt: as §1, §2
Stimulation of the inflammatory process in neutrophils, not only activates the respiratory burst, but as a consequence, is also associated with release of lysosomal enzymes from the cells in a process called degranulation. Degranulation of lysosomal enzymes was stimulated in neutrophils from each group of subjects, using calcium ionophore as inflammatory stimulant.

[10] = tested on: carrageenan induced paw oedema; assay: Carrageenan-induced paw oedema in rats; assay type: in vivo, rat; settings: for percentage increase in paw volume: 1 h after carrageenan, mean ± S.E.M.; for reduction in paw oedema: versus control
Method: The studies were conducted on inbred Wistar strain albino rats (120-180 g) of either sex. The rats were housed in colony cages at an ambient temperature of 25°±2° C. and fed on standard pellet chow. The rats were anaesthetized using pentobarbitone sodium, their hind paws were marked and the volume measured. […] The control animals were injected with 10 μl of 0.9% saline solution. […] One hour following the carrageenan injection the hind paw volume was measured again. A 5 ml blood sample was taken from each animal into sodium heparin Vacutainers. Chemiluminescence activity was assayed in the PBMC isolated from each animal.
These studies were also conducted on inbred Wistar strain albino rats (120-180 g) of either sex. The rats were anaesthetized using pentobarbitone sodium prior to marking each hind paw and measuring paw volume. […] The control animals received 0.5 ml of 0.9% NaCl subcutaneously. 30 min after the injections were administered, paw oedema was induced using carrageenan. One hour following carrageenan administration the hind paw volume was measured. A 5 ml blood sample was taken from each animal into sodium heparin Vacutainers and used for chemiluminescence measurement.

[11] = 10 mM HEPES, disease controls (a)
[12] = 10 mM HEPES, disease controls (b)
[13] = 10 mM HEPES, Normal + iodide (1 mM potassium iodide)

O=S(=O)(O)CCN1CCN(CCO)CC1 [HEPES, N-2-hydroxyethylpiperazine-N'-2-ethanesulphonic acid]
activity at 10000 µM ([1]; Normal): 211 ± 12.5%
activity at 10000 µM ([1]; Psoriasis): 193 ± 10.7%
activity at 10000 µM ([1]; disease controls (a)): 152 ± 8.3%
Myeloperoxidase activity of neutrophils ([2]; 10 mM HEPES, Normal): 228 ± 25.4 percentage activity of control
Myeloperoxidase activity of neutrophils ([2]; 10 mM HEPES, Psoriasis): 247 ± 30.1 percentage activity of control
Myeloperoxidase activity of neutrophils [2, 11]: 198 ± 17.1 percentage activity of control
Myeloperoxidase activity of neutrophils [2, 12]: 211 ± 56.4 percentage activity of control
reduction of leukotriene B4 in monocytes [3]: also demonstrated in monocytes
Leukotriene B4 production by neutrophils [4, 13]: no measurable leukotriene B4
activity at 10000 µM [4, 13]: 0%
activity at 10000 µM ([4]; 10 mM HEPES, Normal): 55.8 ± 8.9%
activity at 10000 µM ([4]; 10 mM HEPES, Psoriasis): 22.4 ± 6.62%
activity at 10000 µM [4, 11]: 24.9 ± 8.99%
activity at 10000 µM [4, 12]: 16.7 ± 6.42%
activity at 10000 µM ([5]; Normal): 28.8 ± 4.24%
activity at 10000 µM ([5]; Psoriasis): 26.9 ± 3.25%
activity at 10000 µM ([5]; disease controls (a) eczema, acne, dermatitis herpetiformis): 28.8 ± 3.84%
activity at 10000 µM ([5]; disease controls (b) Crohn's disease, ulcerative colitis): 25.4 ± 6.4%
tolerability of single topical dose ([6]; intact and stripped skin groups): well tolerated
Mean urinary excretion of radioactivity ([6]; intact skin group): 0.07+0.08% of the applied dose
radioactivity in 48-72 hour faecal sample ([6]; one subject of the stripped skin group): 0.11 % of the applied dose
abnormalities in biochemistry, haematology and urinalysis screens ([6]; single topical dose): not considered to be related
radioactivity in plasma or faecal samples ([6]; single topical dose approx. 100 mg 5% cream, intact and stripped skin groups, samples up to 120 hours): No radioactivity was detected
Mean urinary excretion of radioactivity ([6]; stripped skin group): 0.20±0.22% of the applied dose
binding to the enzyme (MPO) [7]: did not bind to the enzyme
effect on catalase activity [8]: no effect on catalase activity
activity at 10000 µM ([9]; Normal): 104%
activity at 10000 µM ([9]; Psoriasis): 104%
activity at 10000 µM ([9]; disease controls (a)): 87.2%
degranulation by preincubated neutrophils compared to control cells [9]: no difference in degranulation
percentage increase in paw volume ([10]; I.P. 500 μg HEPES): 23 ± 4 percentage increase in paw volume
reduction in paw oedema ([10]; intraperitoneal 500 μg HEPES): 50%

NCCS(=O)(=O)O [taurine, 2-aminoethanesulphonic acid]
activity at 40000 µM ([1]; Normal): 152 ± 14.1%
activity at 40000 µM ([1]; Psoriasis): 167 ± 34.7%
activity at 40000 µM ([1]; disease controls (a)): 142 ± 32.1%
Myeloperoxidase activity of neutrophils ([2]; 40 mM taurine, Normal): 564 ± 38.3 percentage activity of control
Myeloperoxidase activity of neutrophils ([2]; 40 mM taurine, Psoriasis): 591 ± 61.8 percentage activity of control
Myeloperoxidase activity of neutrophils ([2]; 40 mM taurine, disease controls (a)): 473 ± 33.7 percentage activity of control
Myeloperoxidase activity of neutrophils ([2]; 40 mM taurine, disease controls (b)): 485 ± 49.2 percentage activity of control
reduction of leukotriene B4 in monocytes [3]: also demonstrated in monocytes
activity at 40000 µM ([4]; Normal): 64.8 ± 8.3%
activity at 40000 µM ([4]; Psoriasis): 66.5 ± 10.9%
activity at 40000 µM ([4]; disease controls (a)): 73.3 ± 9.95%
activity at 40000 µM ([4]; disease controls (b)): 78 ± 8.6%
activity at 40000 µM ([5]; Normal): 12.7 ± 1.77%
activity at 40000 µM ([5]; Psoriasis): 15.5 ± 2.1%
activity at 40000 µM ([5]; disease controls (a)): 20.3 ± 1.85%
activity at 40000 µM ([5]; disease controls (b)): 30.5 ± 8.6%
binding to the enzyme (MPO) [7]: did not bind to the enzyme
effect on catalase activity [8]: no effect on catalase activity
degranulation by preincubated neutrophils compared to control cells [9]: no significant difference in degranulation
percentage increase in paw volume ([10]; I.C.V. 50 μg taurine): 30 ± 4 percentage increase in paw volume
percentage increase in paw volume ([10]; I.C.V. 500 μg taurine): 21 ± 8 percentage increase in paw volume
percentage increase in paw volume ([10]; S.C. 500 μg taurine): 27 ± 2 percentage increase in paw volume
reduction in paw oedema ([10]; i.c.v. 50 μg taurine): 21%
reduction in paw oedema ([10]; i.c.v. 500 μg taurine): 54%
reduction in paw oedema ([10]; s.c. 500 μg taurine): 18%
